Test results reported in patent publication US10538487B2, “Sulfonylureas and related compounds and use of same” (priority 2015, dated 2020).
Like-named read-outs stand apart in the source and are kept apart here.

Biological target: NLRP3 inflammasome (Homo sapiens, UniProt Q96P20)
Assay: Inhibition of IL-1β release, NLRP3 inflammasome activation assay in HMDM
Assay type: cell-based
Description: The following assays can be used to determine inhibitory activity of test compounds on the NLRP3 inflammasome using common stimuli such as adenosine triphosphate, nigericin, LeuLeu-OMe or monosodium urate crystals (MSU).
To generate HMDM, human monocytes are isolated from buffy coat blood using Ficoll-Plaque Plus (GE Healthcare) and density centrifugation. CD14^+ cell selection is performed using MACS magnetic beads (Miltenyl Biotec).
HMDM are seeded at 1×10^5/ml. […] Medium is removed and replaced with serum free medium (SFM) containing test compound 30 min prior to NLRP3 stimulation. […] ATP can be sourced from Sigma Aldrich, nigericin and MSU from Invivogen and LeuLeu-Ome from Chem-Impex International.
For ELISA and cell death assays cells are seeded in 96 well plates. Supernatants are removed and analysed using ELISA kits according to the manufacturer's instructions (DuoSet® R&D Systems, ReadySetGo!® eBioscience, BD OptEIA™, or Perkin Elmer AlphaLISA®). Cell death is assessed by measurement of LDH release relative to a 100% cell lysis control using the CytoTox96® non-radioactive cytotoxicity assay (Promega).

[1] = commercial compounds (Table 9), read-out: HMDM IC50 vs NLRP3
[2] = inhibition of IL-1β release, class symbols, read-out: Avg. IL-1β IC50 HMDM

Sequence of NLRP3 inflammasome (Q96P20 whole entry): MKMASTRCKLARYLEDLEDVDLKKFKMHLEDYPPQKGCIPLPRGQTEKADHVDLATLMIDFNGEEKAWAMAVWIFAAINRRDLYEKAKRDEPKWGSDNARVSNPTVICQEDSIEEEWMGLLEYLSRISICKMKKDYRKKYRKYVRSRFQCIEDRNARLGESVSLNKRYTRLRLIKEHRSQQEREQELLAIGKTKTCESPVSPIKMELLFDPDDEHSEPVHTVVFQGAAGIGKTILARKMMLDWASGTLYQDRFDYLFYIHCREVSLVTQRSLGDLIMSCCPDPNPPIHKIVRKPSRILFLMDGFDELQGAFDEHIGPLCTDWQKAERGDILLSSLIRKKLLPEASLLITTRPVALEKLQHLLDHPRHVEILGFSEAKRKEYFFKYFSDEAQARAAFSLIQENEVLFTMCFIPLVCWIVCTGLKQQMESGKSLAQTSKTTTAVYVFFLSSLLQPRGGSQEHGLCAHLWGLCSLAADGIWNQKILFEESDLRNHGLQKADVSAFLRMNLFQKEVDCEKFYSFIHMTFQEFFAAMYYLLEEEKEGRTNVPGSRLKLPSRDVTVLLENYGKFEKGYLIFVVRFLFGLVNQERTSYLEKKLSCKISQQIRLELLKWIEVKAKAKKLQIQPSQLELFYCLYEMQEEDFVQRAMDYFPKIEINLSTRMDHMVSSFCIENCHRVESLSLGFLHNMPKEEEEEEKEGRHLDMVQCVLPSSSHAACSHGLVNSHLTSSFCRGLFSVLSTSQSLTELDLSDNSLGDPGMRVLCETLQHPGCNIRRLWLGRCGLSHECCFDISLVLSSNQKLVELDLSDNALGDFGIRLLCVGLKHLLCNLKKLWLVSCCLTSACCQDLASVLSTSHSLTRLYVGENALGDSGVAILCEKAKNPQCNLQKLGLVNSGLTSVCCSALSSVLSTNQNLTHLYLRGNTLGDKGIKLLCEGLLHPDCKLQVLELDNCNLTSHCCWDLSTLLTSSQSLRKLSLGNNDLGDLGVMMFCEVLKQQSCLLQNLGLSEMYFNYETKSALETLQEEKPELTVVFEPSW

Compound	IC50 [1]	IC50 [2]
COc1ccc2c(c1)C(=O)N(CCc1ccc(S(=O)(=O)NC(=O)NC3CCCCC3)cc1)C(=O)C2(C)C [Gliquidone, N-(cyclohexylcarbamoyl)-4-(2-(7-methoxy-4,4-dimethyl-1,3-dioxo-3,4-dihydroisoquinolin-2(1H)-yl)ethyl)benzenesulfonamide, reference compound]	32 µM	
O=C(Nc1c2c(cc3c1CCC3)CCC2)NS(=O)(=O)c1cc2ccccc2o1 [N-((1,2,3,5,6,7-hexahydro-s-indacen-4-yl)carbamoyl)benzofuran-2-sulfonamide]		< 1 µM
CC(C)c1cc(Cl)cc(C(C)C)c1NC(=O)NS(=O)(=O)c1cc(C(C)(C)O)co1 [sodium ((4-chloro-2,6-diisopropylphenyl)carbamoyl)((4-(2-hydroxypropan-2-yl)furan-2-yl)sulfonyl)amide]		< 0.1 µM
[2H]C([2H])([2H])C(O)(c1cc(S(=O)(=O)NC(=O)Nc2c3c(c(Br)c4c2OCC4)CCC3)oc1C)C([2H])([2H])[2H] [N-((4-bromo-3,5,6,7-tetrahydro-2H-indeno[5,6-b]furan-8-yl)carbamoyl)-4-(2-hydroxypropan-2-yl-1,1,1,3,3,3-d6)-5-methylfuran-2-sulfonamide]		< 0.1 µM
CC(C)(O)c1ccnc(S(=O)(=O)NC(=O)Nc2c3c(cc4c2CCC4)CCC3)c1 [N-(1,2,3,5,6,7-hexahydro-s-indacen-4-ylcarbamoyl)-4-(2-hydroxypropan-2-yl)pyridine-2-sulfonamide]		< 0.1 µM
CC(C)c1cccc(C(C)C)c1NC(=O)NS(=O)(=O)c1cc(C(F)(F)F)n(C)n1 [N-((2,6-diisopropylphenyl)carbamoyl)-1-methyl-5-(trifluoromethyl)-1H-pyrazole-3-sulfonamide]		< 10 µM
Cc1ccc(S(=O)(=O)NC(=O)NN2CCCCCC2)cc1 [Tolazamide, reference compound]	> 200 µM	
CN(C)c1cccc2c(S(=O)(=O)NC(=O)Nc3c4c(cc5c3CCC5)CCC4)cccc12 [5-(dimethylamino)-N-((1,2,3,5,6,7-hexahydro-s-indacen-4-yl)carbamoyl)naphthalene-1-sulfonamide]		< 1 µM
CC(C)c1cc(Cl)cc(C(C)C)c1NC(=O)NS(=O)(=O)c1cccc2cccnc12 [N-((4-chloro-2,6-diisopropylphenyl)carbamoyl)quinoline-8-sulfonamide]		< 10 µM
COc1cc(NC(=O)NS(=O)(=O)c2cc(C(C)(C)O)co2)c2ncccc2c1 [4-(2-hydroxypropan-2-yl)-N-((6-methoxyquinolin-8-yl)carbamoyl)furan-2-sulfonamide]		< 10 µM
CCCCNC(=O)NS(=O)(=O)c1ccc(N)cc1 [Carbutamide, reference compound]	> 200 µM	
O=C(Nc1c2c(cc3c1CCC3)CCC2)NS(=O)(=O)C1CCCCC1 [N-((1,2,3,5,6,7-hexahydro-s-indacen-4-yl)carbamoyl)cyclohexanesulfonamide]		< 10 µM
Cc1cnc(C(=O)NCCc2ccc(S(N)(=O)=O)cc2)cn1 [Glipizide precursor, reference compound]	> 50 µM	
COc1ccccc1S(=O)(=O)NC(=O)Nc1c2c(cc3c1CCC3)CCC2 [N-((1,2,3,5,6,7-hexahydro-s-indacen-4-yl)carbamoyl)-2-methoxybenzenesulfonamide]		< 1 µM
Cc1cnc(C(=O)NCCc2ccc(S(=O)(=O)NC(=O)Nc3c4c(cc5c3CCC5)CCC4)cc2)cn1 [N-(4-(N-((1,2,3,5,6,7-hexahydro-s-indacen-4-yl)carbamoyl)sulfamoyl)phenethyl)-5-methylpyrazine-2-carboxamide]		< 1 µM
CC(C)c1cc(Cl)cc(C(C)C)c1NC(=O)NS(=O)(=O)c1ccn(C(C)C)n1 [sodium ((4-chloro-2,6-diisopropylphenyl)carbamoyl)((1-isopropyl-1H-pyrazol-3-yl)sulfonyl)amide]		< 1 µM
O=C(Nc1c2c(cc3c1CCC3)CCC2)NS(=O)(=O)c1ccn(C2CCCCC2)n1 [1-cyclohexyl-N-((1,2,3,5,6,7-hexahydro-s-indacen-4-yl)carbamoyl)-1H-pyrazole-3-sulfonamide]		< 1 µM
